# Tested on: immune cell subsets in PBMC cultures from HIV-1 infected subjects on cART
# Assay: Induced immune cell activation in PBMC cultures from HIV-1 infected subjects on cART (flow cytometry)
# Format: cell-based, human
# Details: for B Cells CD69 % / B Cells CD69 Fold vs DMSO / B Cells CD80 % / B Cells CD80 Fold vs DMSO / DCs CD69 % / DCs CD69 Fold vs DMSO / DCs CD80 % / DCs CD80 Fold vs DMSO / CD4+ T Cells CD25 % / CD4+ T Cells CD25 Fold vs DMSO / CD4+ T Cells CD69 % / CD4+ T Cells CD69 Fold vs DMSO / CD4+ T Cells Perforin % / CD4+ T Cells Perforin Fold vs DMSO / CD8+ T Cells CD25 % / CD8+ T Cells CD25 Fold vs DMSO / CD8+ T Cells CD28 % / CD8+ T Cells CD28 Fold vs DMSO / CD8+ T Cells CD38 % / CD8+ T Cells CD38 Fold vs DMSO / CD8+ T Cells CD69 % / CD8+ T Cells CD69 Fold vs DMSO / Monocytes CD11c % / Monocytes CD11c Fold vs DMSO / Monocytes CD69 % / Monocytes CD69 Fold vs DMSO / Monocytes CD80 % / Monocytes CD80 Fold vs DMSO / NK Cells CD25 % / NK Cells CD25 Fold vs DMSO / NK Cells CD69 % / NK Cells CD69 Fold vs DMSO: 2 days, geometric mean; for B Cells CD69 % / B Cells CD69 Fold vs DMSO / B Cells CD80 % / B Cells CD80 Fold vs DMSO / DCs CD69 % / DCs CD69 Fold vs DMSO / DCs CD80 % / DCs CD80 Fold vs DMSO: N = 4; for CD4+ T Cells CD25 % / CD4+ T Cells CD25 Fold vs DMSO / CD4+ T Cells CD69 % / CD4+ T Cells CD69 Fold vs DMSO / CD4+ T Cells Perforin % / CD4+ T Cells Perforin Fold vs DMSO / CD8+ T Cells CD25 % / CD8+ T Cells CD25 Fold vs DMSO / CD8+ T Cells CD28 % / CD8+ T Cells CD28 Fold vs DMSO / CD8+ T Cells CD38 % / CD8+ T Cells CD38 Fold vs DMSO / CD8+ T Cells CD69 % / CD8+ T Cells CD69 Fold vs DMSO / Monocytes CD11c % / Monocytes CD11c Fold vs DMSO / Monocytes CD69 % / Monocytes CD69 Fold vs DMSO / Monocytes CD80 % / Monocytes CD80 Fold vs DMSO / NK Cells CD25 % / NK Cells CD25 Fold vs DMSO / NK Cells CD69 % / NK Cells CD69 Fold vs DMSO: N = 6
# Description: TLR8 modulating compound affects activation of distinct cell populations, PBMCs were purified from HIV-1 infected subjects on cART, as described in Example 121 (anonymized participant IDs 184, 185, 188, 189, 190, and 191). […] After incubation, PBMCs were harvested and stained with antibodies conjugated to specific fluorophores (BD Biosciences) to delineate immune cell subsets: CD4 T cells (CD3+ CD4+ CD8-), CD8 T cells (CD3+ CD8+ CD4-), NK cells (CD3-CD56+ CD16+), monocytes (CD3-CD14+), B cells (CD3-CD19+), and peripheral dendritic cells (DCs), defined as positive for HLA-DR and negative for a panel of markers: CD3, CD14, CD16, CD19, CD20, CD56 (Lin-1 lineage panel, BD Biosciences).
# Additional markers of activation, maturation, and effector function were included for cell subsets, as follows: CD4 and CD8 T cells (CD25, CD38, CD69, IFN-γ, granzyme B, perforin, TNF-α), NK cells (CD25, CD69, IFN-γ), monocytes (CD11c, CD16, CD80, CD86, CD163, TNF-α), B cells (CD40, CD69, CD80, CD86), and DC (CD11c, CD69, CD80, CD86, CD123, and CD163). Cells were stained for surface markers (CD3, CD4, CD8, CD11c, CD14, CD16, CD25, CD69, CD80, CD86, CD163), washed, treated with fixation and permeabilization buffer (eBioscience), and stained for intracellular markers (IFN-γ, granzyme B, perforin, TNF-α). Cells were evaluated by flow cytometry on a LSR Fortessa (BD Biosciences), and data was analyzed with FlowJo software (TreeStar).
# Data are expressed as geometric mean percentage (%) and as geometric mean fold-activation (Fold) for each marker and for each PBMC subset obtained from 4 or 6 subjects, as indicated. Fold activation is calculated as a ratio of the % positive for each marker for each PBMC subset at the indicated concentration of the compound of Example 15 relative to % positive for DMSO treated samples. Fold activations that are 1.5 are in bold.
structure (smiles),measurement,setting,value
CCCC[C@H](CO)Nc1nc(N)nc2cccnc12 [Example 15],Perforin in CD8+ T cells with treatment,,did not increase
same,B Cells CD69 %,Example 15 10 nM,10.0%
same,B Cells CD69 Fold vs DMSO,Example 15 10 nM,1.2 fold
same,B Cells CD80 %,Example 15 10 nM,2.6%
same,B Cells CD80 Fold vs DMSO,Example 15 10 nM,1.6 fold
same,DCs CD69 %,Example 15 10 nM,0.3%
same,DCs CD69 Fold vs DMSO,Example 15 10 nM,0.1 fold
same,DCs CD80 %,Example 15 10 nM,49.8%
same,DCs CD80 Fold vs DMSO,Example 15 10 nM,1.8 fold
same,CD4+ T Cells CD25 %,Example 15 10 nM,1.5%
same,CD4+ T Cells CD25 Fold vs DMSO,Example 15 10 nM,0.6 fold
same,CD4+ T Cells CD69 %,Example 15 10 nM,5.7%
same,CD4+ T Cells CD69 Fold vs DMSO,Example 15 10 nM,0.7 fold
same,CD4+ T Cells Perforin %,Example 15 10 nM,11.8%
same,CD4+ T Cells Perforin Fold vs DMSO,Example 15 10 nM,1.5 fold
same,CD8+ T Cells CD25 %,Example 15 10 nM,0.2%
same,CD8+ T Cells CD25 Fold vs DMSO,Example 15 10 nM,0.6 fold
same,CD8+ T Cells CD28 %,Example 15 10 nM,0.1%
same,CD8+ T Cells CD28 Fold vs DMSO,Example 15 10 nM,0.9 fold
same,CD8+ T Cells CD38 %,Example 15 10 nM,25.3%
same,CD8+ T Cells CD38 Fold vs DMSO,Example 15 10 nM,0.9 fold
same,CD8+ T Cells CD69 %,Example 15 10 nM,3.7%
same,CD8+ T Cells CD69 Fold vs DMSO,Example 15 10 nM,0.8 fold
same,Monocytes CD11c %,Example 15 10 nM,0.4%
same,Monocytes CD11c Fold vs DMSO,Example 15 10 nM,0.6 fold
same,Monocytes CD69 %,Example 15 10 nM,0.8%
same,Monocytes CD69 Fold vs DMSO,Example 15 10 nM,0.3 fold
same,Monocytes CD80 %,Example 15 10 nM,33.0%
same,Monocytes CD80 Fold vs DMSO,Example 15 10 nM,1.1 fold
same,NK Cells CD25 %,Example 15 10 nM,0.2%
same,NK Cells CD25 Fold vs DMSO,Example 15 10 nM,0.4 fold
same,NK Cells CD69 %,Example 15 10 nM,0.8%
same,NK Cells CD69 Fold vs DMSO,Example 15 10 nM,0.4 fold
same,B Cells CD69 %,Example 15 100 nM,3.9%
same,B Cells CD69 Fold vs DMSO,Example 15 100 nM,0.5 fold
same,B Cells CD80 %,Example 15 100 nM,1.7%
same,B Cells CD80 Fold vs DMSO,Example 15 100 nM,1.1 fold
same,DCs CD69 %,Example 15 100 nM,1.0%
same,DCs CD69 Fold vs DMSO,Example 15 100 nM,0.4 fold
same,DCs CD80 %,Example 15 100 nM,67.2%
same,DCs CD80 Fold vs DMSO,Example 15 100 nM,2.4 fold
same,CD4+ T Cells CD25 %,Example 15 100 nM,3.9%
same,CD4+ T Cells CD25 Fold vs DMSO,Example 15 100 nM,1.7 fold
same,CD4+ T Cells CD69 %,Example 15 100 nM,7.7%
same,CD4+ T Cells CD69 Fold vs DMSO,Example 15 100 nM,1.0 fold
same,CD4+ T Cells Perforin %,Example 15 100 nM,10.4%
same,CD4+ T Cells Perforin Fold vs DMSO,Example 15 100 nM,1.3 fold
same,CD8+ T Cells CD25 %,Example 15 100 nM,0.3%
same,CD8+ T Cells CD25 Fold vs DMSO,Example 15 100 nM,1.0 fold
same,CD8+ T Cells CD28 %,Example 15 100 nM,0.1%
same,CD8+ T Cells CD28 Fold vs DMSO,Example 15 100 nM,1.1 fold
same,CD8+ T Cells CD38 %,Example 15 100 nM,29.2%
same,CD8+ T Cells CD38 Fold vs DMSO,Example 15 100 nM,1.0 fold
same,CD8+ T Cells CD69 %,Example 15 100 nM,3.4%
same,CD8+ T Cells CD69 Fold vs DMSO,Example 15 100 nM,0.7 fold
same,Monocytes CD11c %,Example 15 100 nM,3.6%
same,Monocytes CD11c Fold vs DMSO,Example 15 100 nM,5.2 fold
same,Monocytes CD69 %,Example 15 100 nM,1.8%
same,Monocytes CD69 Fold vs DMSO,Example 15 100 nM,0.6 fold
same,Monocytes CD80 %,Example 15 100 nM,47.7%
same,Monocytes CD80 Fold vs DMSO,Example 15 100 nM,1.6 fold
same,NK Cells CD25 %,Example 15 100 nM,0.8%
same,NK Cells CD25 Fold vs DMSO,Example 15 100 nM,1.6 fold
same,NK Cells CD69 %,Example 15 100 nM,1.1%
same,NK Cells CD69 Fold vs DMSO,Example 15 100 nM,0.6 fold
